Literature values in patent US7727979B2, “Guanidine derivatives and their use as neuropeptide FF receptor antagonists” (Actelion Pharmaceuticals Ltd., priority 2003, dated 2010).

Test system: human and rat-NPFF1 receptor

times higher affinity to NPFF1 receptor than to the corresponding NPFF2 receptors: 10-60 times
SMILES: NC(N)=NCCC[C@@H](NC(=O)C(c1ccccc1)c1ccccc1)C(=O)NCc1ccc(O)cc1 [BIBP3226]
